The values below come from patent publication US10457677B2 (priority 2015, dated 2019).

The test system of experiment [1] is phosphorylation of CHK2 (phospho-Thr68) in HCT116 cells. Kind of experiment: Cellular pCHK2 assay: bleomycin-induced phosphorylation of CHK2 (phospho-Thr68), immunofluorescence high-content analysis. In kind it is cell-based, human. Conditions: Homo sapiens, HCT-116, 4 h, read-out: IC50 (pCHK2). Summed up:
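HCT116 cells in DMEM with 10% FCS, incubated overnight at 37° C, then given compounds (1 nM to 30 μM, 0.5% DMSO) together with 10 μM bleomycin. Phospho-Thr68 CHK2 immunostained and imaged by high-content imager; nuclei with pCHK2 above background counted, cell count from propidium iodide DNA stain.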

A further experiment deals with PI3K p110δ/p85α (human) (Homo sapiens (Human), UniProt O00329). Kind of experiment: PI3K p110δ/p85α (human), non-radioactive assay (HTRF). As to conditions: read-out: IC50 (PI3Kdelta). The experiment is classed as biochemical. A general note: TR-FRET usually uses a lanthanide donor and a delayed reading to cut background.
The target in a further experiment is PI3K p110β/p85α (human) (Homo sapiens (Human), UniProt P42338). Nature of the experiment: PI3K p110β/p85α (human), non-radioactive assay (HTRF). In kind it is biochemical. Conditions: read-out: IC50 (PI3Kbeta). The method in brief: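 Human p110β/p85α incubated with 10 μM phosphatidylinositol 4,5-bisphosphate and MgATP for 30 min at room temperature, stopped with EDTA plus biotinylated PIP3. HTRF detection used a Eu-anti-GST antibody, GST-GRP1 PH domain and streptavidin-APC, with signal taken as 10000×(Em665nm/Em620nm).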

For the next experiment, the target named is PI3K p110α/p85α (human) (Homo sapiens (Human), UniProt P42336). Nature of the experiment: PI3K p110α/p85α (human), non-radioactive assay (HTRF). As to conditions: read-out: IC50 (PI3Kalpha). In kind it is biochemical.
Experiment [2] addresses purified human recombinant ATM (ataxia telangiectasia mutated), full length (Homo sapiens (Human), UniProt Q13315). Nature of the experiment: ATM kinase assay - determination of ATM inhibition (IC50 ATM), TR-FRET. In kind it is biochemical. The method in brief: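 Full-length enzyme, expressed in a mammalian cell line, pre-incubated 15 min with inhibitor in 25 mM HEPES pH 8.0, 10 mM Mg(CH3COO)2, 1 mM MnCl2, 0,1% BSA, 0,01% Brij 35, 5 mM DTT. Full-length cmyc-p53 (Sf21-expressed) and ATP then added, 30-35 min at 22° C. EDTA stop; p53 S15 phosphorylation read by TR-FRET antibodies.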

The next experiment concerns the target mTOR (human) (Homo sapiens (Human), UniProt P42345). Nature of the experiment: mTOR (human) kinase assay, [γ-33P-ATP] filter assay. In kind it is biochemical. The method in brief:
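Radiometric filter assay: enzyme in 50 mM HEPES pH 7.5, 1 mM EGTA, 0.01% Tween 20, 3 mM MnCl2, 2 mg/ml substrate with [γ-33P-ATP], started with MgATP. Incubated 40 min at room temperature, stopped with 3% phosphoric acid; incorporation measured on P30 filtermat by scintillation counting.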

The target in another experiment is PI3K (p120γ) (human) (Homo sapiens (Human), UniProt P48736). Kind of experiment: PI3K (p120γ) (human), non-radioactive assay (HTRF). The experiment is classed as biochemical. As to conditions: read-out: IC50 (PI3Kgamma). The method in brief: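 Enzyme was run with 10 μM phosphatidylinositol 4,5-bisphosphate, starting the reaction with MgATP at an unspecified level, for 30 min at room temperature. The stop used EDTA plus biotinylated PIP3, and detection used Eu-anti-GST, GST-GRP1 PH domain and streptavidin-APC. Signal was taken as HTRF = 10000×(Em665nm/Em620nm).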

pIC50: −log10 of the molar value. Where two headings read alike, the source gives them in different places.

Sequence of PI3K (p120γ) (human) (P48736 whole entry, the tested form may be a part): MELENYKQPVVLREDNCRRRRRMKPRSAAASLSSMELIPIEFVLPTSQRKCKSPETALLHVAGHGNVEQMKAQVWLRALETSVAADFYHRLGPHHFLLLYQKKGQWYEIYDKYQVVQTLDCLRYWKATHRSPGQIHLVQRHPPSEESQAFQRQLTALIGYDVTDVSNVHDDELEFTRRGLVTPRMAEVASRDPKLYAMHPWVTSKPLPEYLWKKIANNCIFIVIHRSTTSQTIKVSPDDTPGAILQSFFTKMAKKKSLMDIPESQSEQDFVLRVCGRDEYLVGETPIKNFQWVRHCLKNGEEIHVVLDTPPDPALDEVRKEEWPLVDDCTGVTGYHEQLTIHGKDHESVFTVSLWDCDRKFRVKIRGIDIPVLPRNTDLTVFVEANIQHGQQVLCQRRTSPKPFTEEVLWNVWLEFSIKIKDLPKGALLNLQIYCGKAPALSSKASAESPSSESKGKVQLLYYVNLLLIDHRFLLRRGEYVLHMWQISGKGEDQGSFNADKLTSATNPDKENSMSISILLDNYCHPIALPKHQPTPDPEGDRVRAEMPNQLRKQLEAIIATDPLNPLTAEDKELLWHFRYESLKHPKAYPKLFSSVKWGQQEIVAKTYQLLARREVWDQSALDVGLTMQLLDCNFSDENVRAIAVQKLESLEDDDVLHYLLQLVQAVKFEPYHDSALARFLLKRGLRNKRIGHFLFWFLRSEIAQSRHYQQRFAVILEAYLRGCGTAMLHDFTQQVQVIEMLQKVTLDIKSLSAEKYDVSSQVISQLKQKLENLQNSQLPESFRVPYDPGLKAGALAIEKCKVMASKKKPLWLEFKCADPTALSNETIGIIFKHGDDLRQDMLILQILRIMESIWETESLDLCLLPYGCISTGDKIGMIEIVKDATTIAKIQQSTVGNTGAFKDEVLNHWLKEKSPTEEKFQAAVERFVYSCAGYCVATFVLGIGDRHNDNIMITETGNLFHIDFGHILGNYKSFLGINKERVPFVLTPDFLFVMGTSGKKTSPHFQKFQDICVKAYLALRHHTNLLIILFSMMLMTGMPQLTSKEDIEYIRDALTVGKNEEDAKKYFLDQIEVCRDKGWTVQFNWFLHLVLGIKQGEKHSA
Sequence of purified human recombinant ATM (ataxia telangiectasia mutated), full length (Q13315 whole entry, change not shown): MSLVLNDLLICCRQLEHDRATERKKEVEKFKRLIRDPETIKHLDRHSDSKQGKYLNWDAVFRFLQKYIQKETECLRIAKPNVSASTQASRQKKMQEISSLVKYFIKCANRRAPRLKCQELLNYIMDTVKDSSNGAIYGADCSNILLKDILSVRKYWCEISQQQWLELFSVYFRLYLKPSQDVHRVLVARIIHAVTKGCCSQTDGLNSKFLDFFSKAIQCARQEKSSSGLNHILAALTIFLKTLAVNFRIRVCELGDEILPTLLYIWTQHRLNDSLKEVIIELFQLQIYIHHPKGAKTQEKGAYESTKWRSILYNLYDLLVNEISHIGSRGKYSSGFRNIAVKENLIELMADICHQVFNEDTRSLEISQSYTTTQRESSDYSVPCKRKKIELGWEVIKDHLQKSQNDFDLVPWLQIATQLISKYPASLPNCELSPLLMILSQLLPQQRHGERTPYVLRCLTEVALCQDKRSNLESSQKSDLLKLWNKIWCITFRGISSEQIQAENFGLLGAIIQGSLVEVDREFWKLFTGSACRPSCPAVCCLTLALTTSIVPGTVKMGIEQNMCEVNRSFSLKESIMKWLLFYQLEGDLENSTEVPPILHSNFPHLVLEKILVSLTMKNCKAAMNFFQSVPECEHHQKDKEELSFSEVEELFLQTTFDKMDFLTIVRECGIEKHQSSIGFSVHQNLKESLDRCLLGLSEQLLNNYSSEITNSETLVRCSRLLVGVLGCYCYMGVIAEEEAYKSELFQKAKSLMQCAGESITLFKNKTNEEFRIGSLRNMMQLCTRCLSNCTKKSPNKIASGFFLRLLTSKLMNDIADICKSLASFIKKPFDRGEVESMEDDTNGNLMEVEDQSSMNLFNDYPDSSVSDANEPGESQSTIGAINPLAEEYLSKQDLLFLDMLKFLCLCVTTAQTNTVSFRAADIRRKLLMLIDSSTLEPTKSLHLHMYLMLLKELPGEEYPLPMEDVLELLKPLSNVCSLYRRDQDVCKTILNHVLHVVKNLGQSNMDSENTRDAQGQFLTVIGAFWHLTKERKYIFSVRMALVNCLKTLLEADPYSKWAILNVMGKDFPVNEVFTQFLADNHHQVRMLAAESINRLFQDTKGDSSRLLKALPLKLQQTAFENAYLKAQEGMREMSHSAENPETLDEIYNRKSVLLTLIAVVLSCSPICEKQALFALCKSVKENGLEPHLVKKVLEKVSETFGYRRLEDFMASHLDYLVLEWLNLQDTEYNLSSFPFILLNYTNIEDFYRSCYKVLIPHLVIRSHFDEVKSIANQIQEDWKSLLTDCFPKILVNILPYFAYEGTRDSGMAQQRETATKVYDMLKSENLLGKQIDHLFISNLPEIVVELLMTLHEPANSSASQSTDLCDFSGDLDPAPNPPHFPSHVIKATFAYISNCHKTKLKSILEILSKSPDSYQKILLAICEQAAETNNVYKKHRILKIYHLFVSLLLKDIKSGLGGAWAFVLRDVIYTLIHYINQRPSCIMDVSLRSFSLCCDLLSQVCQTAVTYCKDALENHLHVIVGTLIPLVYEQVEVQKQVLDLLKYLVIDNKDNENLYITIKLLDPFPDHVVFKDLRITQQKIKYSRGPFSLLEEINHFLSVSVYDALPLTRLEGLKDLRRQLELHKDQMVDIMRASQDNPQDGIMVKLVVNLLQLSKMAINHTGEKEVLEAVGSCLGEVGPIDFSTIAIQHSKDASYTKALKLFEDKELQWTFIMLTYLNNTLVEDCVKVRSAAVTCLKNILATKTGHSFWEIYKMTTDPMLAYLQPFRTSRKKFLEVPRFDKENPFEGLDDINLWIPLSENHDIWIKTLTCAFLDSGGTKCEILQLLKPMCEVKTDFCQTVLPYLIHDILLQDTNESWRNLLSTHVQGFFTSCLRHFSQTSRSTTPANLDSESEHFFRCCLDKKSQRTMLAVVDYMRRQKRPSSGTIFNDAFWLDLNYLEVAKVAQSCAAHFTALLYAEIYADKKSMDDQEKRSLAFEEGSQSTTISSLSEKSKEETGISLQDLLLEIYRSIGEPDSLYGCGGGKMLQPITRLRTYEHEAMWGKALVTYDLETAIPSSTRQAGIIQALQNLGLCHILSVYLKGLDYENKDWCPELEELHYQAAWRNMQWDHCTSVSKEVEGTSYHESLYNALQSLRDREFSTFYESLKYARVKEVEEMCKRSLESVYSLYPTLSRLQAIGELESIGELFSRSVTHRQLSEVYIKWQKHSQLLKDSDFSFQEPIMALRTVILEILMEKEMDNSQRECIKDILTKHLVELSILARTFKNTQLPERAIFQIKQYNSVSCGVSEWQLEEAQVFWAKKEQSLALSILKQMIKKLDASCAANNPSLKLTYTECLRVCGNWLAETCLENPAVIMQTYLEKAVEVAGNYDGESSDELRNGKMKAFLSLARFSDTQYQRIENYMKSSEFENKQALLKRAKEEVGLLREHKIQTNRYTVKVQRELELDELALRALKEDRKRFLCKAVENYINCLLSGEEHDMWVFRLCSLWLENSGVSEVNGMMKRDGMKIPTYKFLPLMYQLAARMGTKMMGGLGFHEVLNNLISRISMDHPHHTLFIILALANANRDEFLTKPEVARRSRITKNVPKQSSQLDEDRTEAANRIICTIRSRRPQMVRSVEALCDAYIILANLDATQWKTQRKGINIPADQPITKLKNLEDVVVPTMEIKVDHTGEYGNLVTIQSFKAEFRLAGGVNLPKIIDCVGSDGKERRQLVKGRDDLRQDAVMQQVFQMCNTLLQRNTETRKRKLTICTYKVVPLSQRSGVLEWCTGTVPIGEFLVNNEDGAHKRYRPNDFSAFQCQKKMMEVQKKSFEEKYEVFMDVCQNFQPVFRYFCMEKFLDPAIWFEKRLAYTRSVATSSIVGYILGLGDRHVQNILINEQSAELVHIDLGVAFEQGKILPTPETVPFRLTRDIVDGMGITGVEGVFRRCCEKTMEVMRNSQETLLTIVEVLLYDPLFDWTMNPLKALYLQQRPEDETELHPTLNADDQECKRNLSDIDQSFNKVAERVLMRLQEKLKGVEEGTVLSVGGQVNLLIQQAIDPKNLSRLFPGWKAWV

Consider `COc1cc2ncc3c(c2cc1-c1cnn(C)c1)n(-c1ccnc(C#N)c1)c(=O)n3C` [Compound Example 45, 4-[7-Methoxy-3-methyl-8-(1-methyl-1H-pyrazol-4-yl)-2-oxo-2,3-dihydroimidazo-[4,5-c]quinolin-1-yl]pyridine-2-carbonitrile], for which the pIC50 is 6.00 to 6.70 in experiment [1]; less than 4.52 on PI3K p110δ/p85α (human); less than 4.52 at PI3K p110β/p85α (human); less than 4.52 at PI3K p110α/p85α (human); greater than 7.30 in experiment [2]; greater than 7.30 in experiment [2] (10 μM ATP, substrate p53). Moreover, the pIC50 against mTOR (human) and on PI3K (p120γ) (human) was less than 4.52 each time.
Turning to `COc1cc2ncc3c(c2cc1-c1cnn(C)c1)n(-c1ncc(F)cn1)c(=O)n3C` [Compound Example 36, 1-(5-Fluoropyrimidin-2-yl)-7-methoxy-3-methyl-8-(1-methyl-1H-pyrazol-4-yl)-1,3-dihydroimidazo[4,5-c] quinolin-2-one], the pIC50 in experiment [1] is greater than 6.70; on PI3K p110δ/p85α (human) it was less than 4.52; on PI3K p110β/p85α (human), less than 4.52; at PI3K p110α/p85α (human), less than 4.52; in experiment [2] it was greater than 9.00; in experiment [2] (10 μM ATP, substrate p53) it was greater than 8.00. Also, the pIC50 on mTOR (human) and on PI3K (p120γ) (human) was less than 4.52 in each case.
Consider `COc1cc2ncc3c(c2cc1-c1cnn(C)c1)n(-c1ncc(F)cc1F)c(=O)n3C` [Compound Example 1, 1-(3,5-Difluoropyridin-2-yl)-7-methoxy-3-methyl-8-(l-methyl-1H-pyrazol-4-yl)-1,3-dihydroimidazo[4,5-c] quinolin-2-one], for which the pIC50 in experiment [1] was greater than 6.70; on PI3K p110δ/p85α (human), less than 4.52; at PI3K p110β/p85α (human), less than 4.52; on PI3K p110α/p85α (human) it was less than 4.52; in experiment [2], greater than 8.00; in experiment [2] (10 μM ATP, substrate p53), greater than 8.00. For the same compound, the pIC50 against mTOR (human) and at PI3K (p120γ) (human) was less than 4.52 throughout.
On to `COc1cc2ncc3c(c2cc1-c1cn(C)nn1)n(-c1ncccc1F)c(=O)n3C` [Compound Example 51, 1-(3-Fluoropyridin-2-yl)-7-methoxy-3-methyl-8-(1-methyl-1H-1,2,3-triazol-4-yl)-1,3-dihydroimidazo-[4,5-c]quinolin-2-one], for which the pIC50 in experiment [1] is 6.00 to 6.70; on PI3K p110δ/p85α (human), less than 4.52; at PI3K p110β/p85α (human), less than 4.52; on PI3K p110α/p85α (human) it was less than 4.52; in experiment [2] it was greater than 8.00; in experiment [2] (10 μM ATP, substrate p53), greater than 8.00. For the same compound, the pIC50 on mTOR (human) and on PI3K (p120γ) (human) was less than 4.52 throughout.
Take `COc1cc2ncc3c(c2cc1-c1cn[nH]c1)n(-c1ncccc1F)c(=O)n3C` [Compound Example 7, 1-(3-Fluoropyridin-2-yl)-7-methoxy-3-methyl-8-(1H-pyrazol-4-yl)-1,3-dihydro-imidazo[4,5-c]quinolin-2-one]: the pIC50 in experiment [1] was greater than 6.70; on PI3K p110δ/p85α (human), less than 4.52; at PI3K p110β/p85α (human) it was less than 4.52; on PI3K p110α/p85α (human) it was less than 4.52; in experiment [2] it was greater than 9.00; in experiment [2] (10 μM ATP, substrate p53), greater than 9.00. Further, the pIC50 at mTOR (human) and at PI3K (p120γ) (human) was less than 4.52 each time.
`COc1cc2ncc3c(c2cc1-c1cn(C)nc1C)n(-c1ncc(F)cc1F)c(=O)n3C` [Compound Example 11, 1-(3,5-Difluoropyridin-2-yl)-8-(1,3-dimethyl-1H-pyrazol-4-yl)-7-methoxy-3-methyl-1,3-dihydroimidazo[4,5-c]-quinolin-2-one]: the pIC50 in experiment [1] is greater than 6.70; at PI3K p110δ/p85α (human), less than 4.52; at PI3K p110β/p85α (human) it was less than 4.52; on PI3K p110α/p85α (human) it was less than 4.52; in experiment [2] it was greater than 9.00; in experiment [2] (10 μM ATP, substrate p53) it was greater than 9.00. The pIC50 at mTOR (human) and on PI3K (p120γ) (human) was less than 4.52 in each case.
As for `COc1cc2ncc3c(c2cc1-c1cnn(C)c1)n(-c1ccncc1OC)c(=O)n3C` [Compound Example 28, 7-Methoxy-1-(3-methoxy-pyridin-4-yl)-3-methyl-8-(1-methyl-1H-pyrazol-4-yl)-1,3-dihydroimidazo[4,5-c] quinolin-2-one], the pIC50 in experiment [1] is greater than 6.70; on PI3K p110δ/p85α (human), less than 4.52; on PI3K p110β/p85α (human) it was less than 4.52; on PI3K p110α/p85α (human), less than 4.52; in experiment [2], greater than 8.00; in experiment [2] (10 μM ATP, substrate p53), greater than 8.00. The pIC50 against mTOR (human) and on PI3K (p120γ) (human) was less than 4.52 each time.
`COc1cc2ncc3c(c2cc1-c1cnn(C)c1)n(-c1c[nH]nc1C)c(=O)n3C` [Compound Example 43, 7-Methoxy-3-methyl-1-(3-methyl-1H-pyrazol-4-yl)-8-(1-methyl-1H-pyrazol-4-yl)-1,3-dihydroimidazo[4,5-c]-quinolin-2-one]: the pIC50 in experiment [1] was 6.00 to 6.70; at PI3K p110δ/p85α (human) it was less than 4.52; on PI3K p110β/p85α (human) it was less than 4.52; on PI3K p110α/p85α (human) it was less than 4.52; in experiment [2] it was greater than 9.00; in experiment [2] (10 μM ATP, substrate p53), greater than 9.00. For the same compound, the pIC50 at mTOR (human) and at PI3K (p120γ) (human) was less than 4.52 throughout.
In the case of `COc1cc2ncc3c(c2cc1-c1cnn(C)c1)n(-c1ccncc1)c(=O)n3C` [compound 58, 7-Methoxy-3-methyl-8-(1-methyl-1H-pyrazol-4-yl)-1-pyridin-4-yl-1,3-dihydro-imidazo[4,5-c]quinolin-2-one], the pIC50 in experiment [1] was 6.00 to 6.70; on PI3K p110δ/p85α (human) it was less than 4.52; on PI3K p110β/p85α (human), less than 4.52; at PI3K p110α/p85α (human) it was less than 4.52; in experiment [2] it was greater than 8.00; in experiment [2] (10 μM ATP, substrate p53), greater than 8.00. The pIC50 on mTOR (human) and at PI3K (p120γ) (human) was less than 4.52 in each case.
Take `COc1cc2ncc3c(c2cc1-c1cn(C)nc1C)n(-c1cn(C)nc1C)c(=O)n3C` [Compound Example 10, 1,8-Bis-(1,3-dimethyl-1H-pyrazol-4-yl)-7-methoxy-3-methyl-1,3-dihydroimidazo-[4,5-c]quinolin-2-one]: the pIC50 is greater than 6.70 in experiment [1]; less than 4.52 at PI3K p110δ/p85α (human); less than 4.52 on PI3K p110β/p85α (human); less than 4.52 on PI3K p110α/p85α (human); greater than 9.00 in experiment [2]; greater than 9.00 in experiment [2] (10 μM ATP, substrate p53). Further, the pIC50 on mTOR (human) and at PI3K (p120γ) (human) was less than 4.52 each time.
As to `COc1cc2ncc3c(c2cc1-c1cnn(C)c1)n(-c1ccncc1C#N)c(=O)n3C` [Compound Example 46, 4-[7-Methoxy-3-methyl-8-(1-methyl-1H-pyrazol-4-yl)-2-oxo-2,3-dihydroimidazo-[4,5-c]quinolin-1-yl]-nicotinonitrile], the pIC50 in experiment [1] was 6.00 to 6.70; on PI3K p110δ/p85α (human) it was less than 4.52; on PI3K p110β/p85α (human), less than 4.52; at PI3K p110α/p85α (human), less than 4.52; in experiment [2], greater than 7.30; in experiment [2] (10 μM ATP, substrate p53) it was greater than 7.30. Also, the pIC50 on mTOR (human) and at PI3K (p120γ) (human) was less than 4.52 throughout.
With `COc1cc2ncc3c(c2cc1-c1cn[nH]c1)n(-c1csc(C)n1)c(=O)n3C` [Compound Example 30, 7-Methoxy-3-methyl-1-(2-methylthiazol-4-yl)-8-(1H-pyrazol-4-yl)-1,3-dihydro-imidazo[4,5-c]quinolin-2-one], the pIC50 in experiment [1] is greater than 6.70; at PI3K p110δ/p85α (human), less than 4.52; on PI3K p110β/p85α (human), less than 4.52; on PI3K p110α/p85α (human), less than 4.52; in experiment [2] it was greater than 8.00; in experiment [2] (10 μM ATP, substrate p53) it was greater than 8.00. Further, the pIC50 on mTOR (human) and on PI3K (p120γ) (human) was less than 4.52 throughout.
Regarding `CCn1cc(-c2cc3c(cc2OC)ncc2c3n(-c3ccncc3)c(=O)n2C)cn1` [compound 62, 8-(1-Ethyl-1H-pyrazol-4-yl)-7-methoxy-3-methyl-1-pyridin-4-yl-1,3-dihydro-imidazo[4,5-c]quinolin-2-one], the pIC50 in experiment [1] is 5.70 to 6.00; on PI3K p110δ/p85α (human), less than 4.52; at PI3K p110β/p85α (human) it was less than 4.52; at PI3K p110α/p85α (human) it was less than 4.52; in experiment [2], greater than 8.00; in experiment [2] (10 μM ATP, substrate p53), greater than 8.00. The pIC50 against mTOR (human) and at PI3K (p120γ) (human) was less than 4.52 each time.
As to `COc1cc2ncc3c(c2cc1-c1cnn(C)c1)n(-c1c(F)cncc1C#N)c(=O)n3C` [Compound Example 44, 5-Fluoro-4-[7-methoxy-3-methyl-8-(1-methyl-1H-pyrazol-4-yl)-2-oxo-2,3-dihydroimidazo[4,5-c]-quinolin-1-yl]nicotinonitrile], the pIC50 in experiment [1] is 6.00 to 6.70; on PI3K p110δ/p85α (human) it was less than 4.52; on PI3K p110β/p85α (human), less than 4.52; on PI3K p110α/p85α (human) it was less than 4.52; in experiment [2], greater than 8.00; in experiment [2] (10 μM ATP, substrate p53), greater than 8.00. For the same compound, the pIC50 against mTOR (human) and on PI3K (p120γ) (human) was less than 4.52 throughout.
